Source: EP1580187A1, “Apoptogenic and antiproliferative analogs of ceramide” (Deigner, Hans-Peter, priority 2004, dated 2005)
Like-named read-outs stand apart in the source and are kept apart here.

Legend:
Assay type in all cases: cell-based
[1] = system: human adenocarcinoma cell line HT 29; assay: Induction of apoptosis (YOPRO-1 / Hoechst 33342 staining, count of apoptotic cells); conditions: HT 29 cells, mean (MW), spontaneous apoptosis rate 2.48 % ± 0.58, unit only printed
Experimental: (§1) Human colon carcinoma cells HT-29 were purchased from ATCC and cultivated under standard conditions (37°C, 5% CO2, McCoy 5A medium, 10% fetal calf serum, penicillin, streptomycin). For experimentation, cells were seeded in cell culture dishes at appropriate density, stimulated and analysed as described in the following section.
Apoptotic macrophages and colon carcinoma cells were identified by microscopic observation of typical morphological changes (blebbing, generation of apoptotic bodies) and quantitated by YOPRO-1 staining and Hoechst 33342 dye. The percentage of apoptotic cells was counted using a microscope fitted with mercury light source and fluorescence assembly in combination with a computer-assisted morphometry system. Apoptosis was confirmed by PARP cleavage detected by Western Blotting and single cell electrophoresis (COMET-assay).
(§2) Induction of apoptosis was determined in the human adenocarcinoma cell line HT 29 as described in Example 1; spontaneous apoptosis rate was 2.48 % ± 0.58. The activation of acidic sphingomyelinase (aSMase) was analyzed in the same cell line as described in Example 1, basal activity amounts to 278,4 pmolµg^-1min^-1 ± 41,3.

[2] = molecular target: T1, acidic sphingomyelinase (aSMase) (Homo sapiens, UniProt P17405); assay: SMase activity determination (activation of aSMase in cells, NBD-sphingomyelin hydrolysis); conditions: HT 29 cells, mean (MW), basal activity 278,4 ± 41,3, unit only printed
T1 construct: endogenous in cells; host or cells: HT 29 (human adenocarcinoma cell line)
T1 sequence (P17405 47-631): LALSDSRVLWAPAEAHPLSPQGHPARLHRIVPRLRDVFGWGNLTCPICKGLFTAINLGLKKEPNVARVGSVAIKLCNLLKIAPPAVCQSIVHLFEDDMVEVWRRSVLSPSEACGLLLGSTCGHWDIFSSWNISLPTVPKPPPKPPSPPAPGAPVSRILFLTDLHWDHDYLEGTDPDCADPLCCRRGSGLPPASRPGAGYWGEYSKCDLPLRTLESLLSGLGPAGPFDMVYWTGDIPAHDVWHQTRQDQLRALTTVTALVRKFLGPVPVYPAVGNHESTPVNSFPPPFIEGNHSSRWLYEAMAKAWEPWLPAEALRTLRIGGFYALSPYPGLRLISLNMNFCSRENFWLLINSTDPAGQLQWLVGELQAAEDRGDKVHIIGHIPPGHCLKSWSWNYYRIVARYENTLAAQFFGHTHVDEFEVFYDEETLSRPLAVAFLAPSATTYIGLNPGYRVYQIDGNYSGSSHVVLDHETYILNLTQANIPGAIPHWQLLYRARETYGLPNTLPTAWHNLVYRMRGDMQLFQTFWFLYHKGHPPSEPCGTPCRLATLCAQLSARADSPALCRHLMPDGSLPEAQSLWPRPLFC
Experimental: Activities of aSMase and nSMase were determined by hydrolysis of a fluorogenic C12-analogue substrate [(7-Nitro-2-1,3-benzoxadiazol-4-yl)amino-dodecyl-D-erythro-sphingosine, NBD-sphingomyelin, Molecular Probes, subsequent separation of the labelled NBD ceramide analog by thin layer chromatography and data analysis at conditions as described in detail previously.
as §2

[3] = system: HT-29 colon carcinoma cells; assay: Proliferation (DNA synthesis, colorimetric BrdU-ELISA); conditions: Homo sapiens
Experimental: as §1
Quantitative determination of DNA synthesis in replicating cells was analyzed using commercial available test kits (colorimetric BrdU-ELISA, Roche-Diagnostics) according to the manufacturer's instructions. For these experiments, HT-29 colon carcinoma cells were seeded in 96-well plates at 40% confluence, cultivated overnight (1% FCS), incubated for 16 h with the test compounds (concentration range: three orders of magnitude), pulsed labelled with BrdU and fixed. The amount of incorporated BrdU was analysed using specific antibodies (Roche Diagnostics, Mannheim, Germany) and subsequent colorimetric reaction. The rate of DNA-synthesis in untreated control cells with standard medium was determined and compared with that in a medium contained the test compounds.
Semiconfluent HT-29 cells were incubated with compound 4 at concentration as indicated over night and DNA synthesis was analyzed on the basis of BrdU-incorporation and subsequent immunological quantification. Compound 4 inhibited cellular proliferative activity with an apparent IC50 of among 6,7 µM. […] Due to previous calculation using dependent variables over several orders of magnitudes, no standard deviation is given in Table 1 presenting the averaged half maximal concentrations for inhibition of proliferative activity.

[4] = HT-29 cells, BrdU incorporation, averaged half maximal concentrations, no standard deviation, read-out: Anti-Prolif. IC50
[5] = semiconfluent HT-29 cells, incubation over night, BrdU-incorporation, read-out: apparent IC50 / half maximal antiproliferative activity

SMILES	Induction of apoptosis 5 μM MW [1]	Induction of apoptosis 10 μM MW [1]	Induction of apoptosis 30 μM MW [1]	aSMase-activity 5 μM MW [2]	aSMase-activity 20 μM MW [2]	IC50 [3, 4] [µM]	IC50 [3, 5] [µM]
CCCCCCCCCCCCC/C=C/[C@@H](O)[C@H](CO)NC(=O)CCCCC [Ceramide C6, reference compound]	2,6%	6,4%	12,4%	427,3 pmolµg^-1min^-1	743,4 pmolµg^-1min^-1	4	~4
CCCCCC(=O)N[C@@H](CO)[C@@H](O)c1ccc([N+](=O)[O-])cc1 [Compound 1, Hexanoic acid [(1S,2S)-2-hydroxy-1-hydroxymethyl-2-(4-nitrophenyl)-ethyl]-amide]	1,3%	8,4%	8,9%	541,3 pmolµg^-1min^-1	631,0 pmolµg^-1min^-1	2.4	
CCCCCC(=O)N[C@@H](CO)[C@H](O)C1=CCCC1 [Compound 2, Hexanoic acid ((1S,2R)-2-cyclopent-1-enyl-2-hydroxy-1-hydroxymethyl-ethyl)-amide]	15,7%	4,9%	5,9%	347,0 pmolµg^-1min^-1	1185,4 pmolµg^-1min^-1	4.6	
CCCCCC(=O)N[C@@H](CO)[C@H](O)/C1=C/CCCCCC1 [Compound 3, Hexanoic acid [(1S,2R)-2-((E)-cyclooct-1-enyl)-2-hydroxy-1-hydroxymethyl-ethyl]-amide]	2,9%	7,4%	5,7%	403,8 pmolµg^-1min^-1	1108,4 pmolµg^-1min^-1	3.1	
CC(C)(C)OC(=O)N1[C@H]([C@H](O)C2=CCCC2)COC1(C)C [Compound 4, (S)-4-((R)-Cyclopent-1-enyl-hydroxy-methyl)-2,2-dimethyloxazolidine-3-carboxylic acid tert-butyl ester]	3,95%	8,5%	10,2%	574,2 pmolµg^-1min^-1	812,7 pmolµg^-1min^-1	6.7	~6.7
CC(C)(C)OC(=O)N1[C@H]([C@H](O)/C2=C/CCCCCC2)COC1(C)C [Compound 5, (S)-4-[(R)-((E)-Cyclooct-1-enyl)-hydroxy-methyl]-2,2-dimethyloxazolidine-3-carboxylic acid tert-butyl ester]	6,4%	7,7%	9,2%	447,3 pmolµg^-1min^-1	967,3 pmolµg^-1min^-1	3.2	
